These are literature values, as cited in US20040248932A1, “Use of aryl- and heteroaryl-substituted tetrahydroisoquinolines in the treatment of chronic and neuropathic pain, migraine headaches, and urge, stress and mixed urinary incontinence” (priority 2002, published 2004).

The conditions of this data set: nocturnal enuresis, following treatment.

Consider `CN(C)CCCN1c2ccccc2CCc2ccccc21` [imipramine, Imipramine], for which the “further patients in whom improvements can be seen” value is listed as 15-20% and the “patients in whom enuresis can be cured” value was “over 50%”.
